Data reported in patent US20230183243A1, “HETEROARYL DERIVATIVES AND PHARMACEUTICAL COMPOSITION COMPRISING SAME AS ACTIVE INGREDIENT” (VORONOI INC., priority 2019, published 2023).

Experiments:
TTK = target: T1, TTK (Homo sapiens, UniProt P33981); experiment: TTK enzyme activity, ADP-Glo kinase assay; type: biochemical; parameters: purchased SignalChem T20-10G; conditions: purified human TTK, ATP 10 μM, 25° C., 2 hours
T1 sequence (P33981 1-857): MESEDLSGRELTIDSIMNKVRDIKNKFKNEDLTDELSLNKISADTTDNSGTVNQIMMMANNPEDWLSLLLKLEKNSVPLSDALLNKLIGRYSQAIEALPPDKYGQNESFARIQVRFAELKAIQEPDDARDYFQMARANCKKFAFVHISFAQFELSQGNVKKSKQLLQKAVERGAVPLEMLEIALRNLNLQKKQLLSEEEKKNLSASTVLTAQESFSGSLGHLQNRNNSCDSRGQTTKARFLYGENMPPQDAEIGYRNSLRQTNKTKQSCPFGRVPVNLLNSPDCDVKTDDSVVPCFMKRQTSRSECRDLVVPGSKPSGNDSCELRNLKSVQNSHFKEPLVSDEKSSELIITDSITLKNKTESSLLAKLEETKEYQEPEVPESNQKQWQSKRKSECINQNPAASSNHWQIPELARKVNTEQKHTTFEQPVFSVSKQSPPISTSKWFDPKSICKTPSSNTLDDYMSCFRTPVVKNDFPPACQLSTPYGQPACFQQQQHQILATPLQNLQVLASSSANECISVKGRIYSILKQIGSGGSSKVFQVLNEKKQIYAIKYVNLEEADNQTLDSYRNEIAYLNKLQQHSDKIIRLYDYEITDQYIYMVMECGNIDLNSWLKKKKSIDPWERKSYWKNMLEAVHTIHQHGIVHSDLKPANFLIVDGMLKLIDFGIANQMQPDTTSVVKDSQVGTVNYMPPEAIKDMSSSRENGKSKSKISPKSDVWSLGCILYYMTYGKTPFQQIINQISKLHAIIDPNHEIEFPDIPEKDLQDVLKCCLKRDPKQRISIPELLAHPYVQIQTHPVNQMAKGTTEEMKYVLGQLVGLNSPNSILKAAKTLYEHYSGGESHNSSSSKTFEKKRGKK
Method: To evaluate an inhibitory activity of the compound according to the present invention against TTK (MPS1), an experiment was performed as follows.
Each of the Example compounds was reacted with a purified human TTK (SignalChem #T20-10G) enzyme to evaluate an ability to inhibit an enzyme using a method as described below. A composition of 40 mM Tris-HCl (pH 7.4), 20 mM MgCl2, 0.5 mg/mL BSA, and 50 μM DTT was used as a reaction buffer, and all reactions of test substances were performed in the reaction buffer. […] In the test, purified ATP (10 μM) and an enzyme substrate (0.2 μg) were reacted with a human TTK (25 ng) enzyme at 25° C. for 2 hours, and the enzyme activity was determined using an in vitro ADP-Glo™ kinase assay (Promega). […] The degree of inhibition of the enzyme activity according to the treatment concentration of each of the compounds was calculated based on the fluorescence of the enzyme activity of the solvent control which was not treated with the compound.

MDA-MB-231 cells = experiment: Inhibition of proliferation of triple-negative breast cancer cells, CellTiter-Glo; type: cell-based; conditions: Homo sapiens, 120 h; MDA-MB-231, cultured for 5 days
Method: Specifically, the following test was performed in order to evaluate the inhibitory activity of the compound according to the present invention against the cell proliferation in triple-negative breast cancer cells (TNBCs).
Cells were seeded in 180 μL of a culture broth at a density of 2,000 to 3,000 cells/well in a white clear bottom 96-well plate (Corning) according to the growth ability of each cell, and then cultured for 24 hours under conditions of 5% CO2 and 37° C. Thereafter, the compound was prepared by diluting a 10 mM stock solution three-fold with 100% DMSO at a total of 12 concentrations so that a peak concentration of the compound was in a range of 10 mM to 0.05 μM, and the diluted compound was then diluted in each cell culture medium so that a final concentration of the compound was in a range of 100 μM to 0.5 nM. 20 μL of a diluted solution diluted with a medium was added to the cell solution in which cells were seeded in the 96-well plate on the previous day so that a final concentration of the diluted solution was in a range of 10 μM to 0.05 nM. Each of the cells was cultured for 5 days. To check cell viability, a mixture provided in a CellTiter-Glo® Luminescent Cell Viability Assay Kit (Promega) was added to each of the cultured cell media, and cultured for another 10 minutes under a condition of 37° C. Then, a degree of luminescence (fluorescence) was measured. A degree of inhibition of the cell growth according to the treatment concentration of each of the compounds was calculated based on the fluorescence of the solvent control cells which were not treated with the compound.

SMILES	IC50 (TTK)	GI50 (MDA-MB-231 cells)
COc1cc(N2CCOC2=O)ccc1Nc1nc(NC2CCCCC2)c2c(C#N)c[nH]c2n1 [Example 3, 4-(cyclohexylamino)-2-((2-methoxy-4-(2-oxooxazolidin-3-yl)phenyl)amino)-7H-pyrrolo[2,3-d] pyrimidine-5-carbonitrile]	< 50 nM	100 to 1000 nM
CC[C@H](C)Nc1nc(Nc2ccc(-c3ccnn3C)cc2OC)nc2[nH]cc(C#N)c12 [Example 1, (S)-4-(sec-butylamino)-2-((2-methoxy-4-(1-methyl-1H-pyrazol-5-yl)phenyl)amino)-7H-pyrrolo[2,3-d] pyrimidine-5-carbonitrile 2,2,2-trifluoroacetate]	< 50 nM	< 100 nM
COc1cc(-c2ccnn2C)ccc1Nc1nc(NCC(C)(C)C)c2c(C#N)c[nH]c2n1 [Example 12, 2-((2-methoxy-4-(1-methyl-1H-pyrazol-5-yl)phenyl)amino)-4-(neopentylamino)-7H-pyrrolo[2,3-d] pyrimidine-5-carbonitrile]	< 50 nM	> 1000 nM
CC(C)COc1cc(N2CCCC2=O)ccc1Nc1nc(NC2CCCC2)c2c(C#N)c[nH]c2n1 [Example 28, 4-(cyclopentylamino)-2-((2-isobutoxy-4-(2-oxopyrrolidin-1-yl)phenyl)amino)-7H-pyrrolo[2,3-d] pyrimidine-5-carbonitrile]	200 to 1000 nM	> 1000 nM
COc1cc(-c2nccs2)ccc1Nc1nc(NC2CCCC2)c2c(C#N)c[nH]c2n1 [Example 17, 4-(cyclopentylamino)-2-((2-methoxy-4-(thiazol-2-yl)phenyl)amino)-7H-pyrrolo[2,3-d] pyrimidine-5-carbonitrile]	200 to 1000 nM	< 100 nM
COc1cc(-c2cnn(C3CCOCC3)c2)ccc1Nc1nc(NC2CCCCC2)c2c(C#N)c[nH]c2n1 [Example 19, 4-(cyclohexylamino)-2-((2-methoxy-4-(1-(tetrahydro-2H-pyran-4-yl)-1H-pyrazol-4-yl)phenyl)amino)-7H-pyrrolo[2,3-d] pyrimidine-5-carbonitrile]	50 to 200 nM	< 100 nM
CNc1nc(Nc2ccc(-c3ccnn3C)cc2OC)nc2[nH]cc(C#N)c12 [Example 9, 2-((2-methoxy-4-(1-methyl-1H-pyrazol-5-yl)phenyl)amino)-4-(methylamino)-1H-pyrrolo[2,3-d] pyrimidine-5-carbonitrile]	< 50 nM	> 1000 nM
CC[C@@H](C)Nc1nc(Nc2ccc(-c3ccnn3C)cc2OC)nc2[nH]cc(C#N)c12 [Example 10, (R)4-(sec-butylamino)-2-((2-methoxy-4-(1-methyl-1H-pyrazol-5-yl)phenyl)amino)-7H-pyrrolo[2,3-d] pyrimidine-5-carbonitrile 2,2,2-trifluoroacetate]	< 50 nM	< 100 nM

The remaining lines, values ahead:

IC50 (TTK)	GI50 (MDA-MB-231 cells)	SMILES
< 50 nM	< 100 nM	COc1cc(N2CCCC2=O)ccc1Nc1nc(NC2COC2)c2c(C#N)c[nH]c2n1 [Example 73, 2-((2-methoxy-4-(2-oxopyrrolidin-1-yl)phenyl)amino)-4-(oxetan-3-ylamino)-7H-pyrrolo[2,3-d] pyrimidine-5-carbonitrile]
< 50 nM	< 100 nM	CNc1nc(Nc2ccc(-c3ccnn3C)c3c2OCCO3)nc2[nH]cc(C#N)c12 [Example 75, 2-((8-(l-methyl-1H-pyrazol-5-yl)-2,3-dihydrobenzo[b][1,4]dioxin-5-yl)amino)-4-(methylamino)-1H-pyrrolo[2,3-d] pyrimidine-5-carbonitrile]
50 to 200 nM	100 to 1000 nM	CC(=O)N1CCN(Cc2ccc(-c3ccc(Nc4nc(NC5CCCCC5)c5c(C#N)c[nH]c5n4)cc3)cc2)CC1 [Example 21]
< 50 nM	< 100 nM	CCC(C)Nc1nc(Nc2ccc(N3CCCC3=O)cc2OC)nc2[nH]cc(C#N)c12 (stereo in doubt) [Example 68, (S)-4-(sec-butylamino)-2-((2-methoxy-4-(2-oxopyrrolidin-1-yl)phenyl)amino)-7H-pyrrolo[2,3-d] pyrimidine-5-carbonitrile]
200 to 1000 nM	< 100 nM	COc1cc(-c2cn(C)nn2)ccc1Nc1nc(NC2CCCCC2)c2c(C#N)c[nH]c2n1 [Example 25, 4-(cyclohexylamino)-2-((2-methoxy-4-(1-methyl-1H-1,2,3-triazol-4-yl)phenyl)amino)-7H-pyrrolo[2,3-d] pyrimidine-5-carbonitrile]
50 to 200 nM	< 100 nM	Cn1nccc1-c1ccc(Nc2nc(NC3CCCC3)c3c(C#N)c[nH]c3n2)c2c1CCO2 [Example 33, 4-(cyclopentylamino)-2-((4-(1-methyl-1H-pyrazol-5-yl)-2,3-dihydrobenzofuran-7-yl)amino)-7H-pyrrolo[2,3-d] pyrimidine-5-carbonitrile]
< 50 nM	< 100 nM	N#Cc1c[nH]c2nc(Nc3ccc(N4CCCC4=O)c4c3OCCO4)nc(NC3CCCCC3)c12 [Example 79, 4-(cyclohexylamino)-2-((8-(2-oxopyrrolidin-1-yl)-2,3-dihydrobenzo[b][1,4]dioxin-5-yl)amino)-7H-pyrrolo[2,3-d] pyrimidine-5-carbonitrile]
< 50 nM	< 100 nM	CC(C)Nc1nc(Nc2ccc(-c3ccnn3C)c3c2OCCO3)nc2[nH]cc(C#N)c12 [Example 76, 4-(isopropylamino)-2-((8-(1-methyl-1H-pyrazol-5-yl)-2,3-dihydrobenzo[b][1,4]dioxin-5-yl)amino)-7H-pyrrolo[2,3-d] pyrimidine-5-carbonitrile]
< 50 nM	< 100 nM	COc1cc(-c2cnn(C)c2)ccc1Nc1nc(NC2CCCC2)c2c(C#N)c[nH]c2n1 [Example 43, 4-(cyclopentylamino)-2-((2-methoxy-4-(1-methyl-1H-pyrazol-4-yl)phenyl)amino)-7H-pyrrolo[2,3-d] pyrimidine-5-carbonitrile]
200 to 1000 nM	100 to 1000 nM	COc1cc(-c2ccnn2C)c(C)cc1Nc1nc(NC2CCCC2)c2c(C#N)c[nH]c2n1 [Example 35, 4-(cyclopentylamino)-2-((2-methoxy-5-methyl-4-(1-methyl-1H-pyrazol-5-yl)phenyl)amino)-7H-pyrrolo[2,3-d] pyrimidine-5-carbonitrile]
